We go through six compounds from patent publication US6099857A, “Cell membrane fusion composition and method” (Washington University, priority 1998, dated 2000).

Series [1] is described as follows: R18 assay of calcium-induced fusion of SUVs of ternary PS/PC/ethanolamine glycerophospholipid mixtures.
A short description of series [2]: NBD-PE/Rh-PE lipid-mixing fusion assay with PS SUVs. The note with it: equal molar mixture with PC; NBD-PE dequenching. The procedure: In the NBD-PE/Rh-PE assay detailed in Example 2B, NBD-PE (N-(7-nitrobenz-2-oxa-1,3-diazol-4-yl)-1,2-dihexadecanoyl-sn-glycerol-3-phosphoethanolamine), and Rh-PE are incorporated into PS SUV's and the vesicles are mixed with test vesicles. Vesicle fusion is followed by the change in fluorescence emission at 530 nm, after […] at 464 nm.
This assay was performed by preparing phosphatidylserine SUVs containing 1.8% Rh-PE and 1.2% NBD-PE and adding an equimolar amount of unlabelled PC/PE vesicles pursuant to (Struck, et al. (1981); and Hoekstra, 1982). Fusion was monitored by NBD-PE fluorescence at 530 nm after excitation at 464 nm. The 100% fusion level was assessed by preparing lipid vesicles composed of 46.5% PS, 25% PC, 25% PE, 0.9% Rh-PE, and 0.6% NBD-PE and subsequently quantifying fluorescence intensity.
Since Rh-PE partially quenches NBD-PE fluorescence by resonance energy transfer at the initial concentrations used in these experiments, membrane fusion results in an increase in NBD-PE fluorescence as available membrane surface area increases.
To verify the results obtained with the R18 fusion assay, a second lipid-mixing assay utilizing NBD-PE and Rh-PE was used. […]

Series [3] in a line: Breakdown of lipids in vesicles during fusion studies (TLC, straight-phase HPLC, 3H label). Type of series: physicochemical. The note with it: within the time frame of the assay. The source says: To verify the differences in observed fusion rates were not due to selective breakdown of one subclass of ethanolamine glycerophospholipid, aliquots of lipid vesicles employed in the fusion studies were extracted by the method of Bligh and Dyer and analyzed by TLC and straight-phase HPLC. No lysophospholipids or other contaminants were detected within the time frame of the assay. For higher sensitivity detection, 16:0-18:1 plasmenyl ethanolamine was synthesized with a ^3 H label on the sn-2 oleoyl group. This label was added to a liposome preparation containing unlabeled PC and PE.

Series [4] addresses T1, GAPDH isoform (membrane fusion protein) (Oryctolagus cuniculus, UniProt P46406).
T1 construct: from tissue; host or cells: rabbit brain (cytosol; DE-52 void volume, HiLoad SP Sepharose, GTP-agarose and Mono Q fractions)
Description: Protein-catalyzed membrane fusion of physiologically-modeled SUVs (R18, stopped flow). It counts as biochemical, rabbit. The note with it: for inhibition of membrane fusion activity: GAPDH isoform-catalyzed fusion of physiologically-modeled SUVs. The procedure: Rabbit brain cytosol was prepared and loaded onto a previously equilibrated DE-52 column. The column was developed with a linear NaCl gradient (0-400 Mm NaCl) and column eluents were assayed for their ability to catalyze membrane fusion utilizing physiologically-modeled small unilamellar vesicles (SUVs) as described in "Materials and Methods". Vesicles were comprised of 16:0-18:1 phosphatidylcholine (27%), 16:0-18:1 phosphatidylserine (6%), cholesterol (40%) and 27% of each of the following ethanolamine glycerophospholipids: 18:0-20:4 plasmenylethanolamine; 16:0-18:1 plasmenylethanolamine; 18:0-20:4 phosphatidylethanolamine; or 16:0-18:1 phosphatidylethanolamine . (----), uv absorbance at 280 nm; (----), NaCl gradient.
Physiologically-modeled SUVs were prepared (concentration=200 μM). The other chamber contained the Pi3 /NAD^+ eluent from GTP-agarose chromatography (0.004 mg/ml) which was previously incubated with (D)-glyceraldehyde 3-phosphate at the indicated concentrations for 30 seconds at 37° C. The rates of membrane fusion from four separate determinations of two preparations were averaged and expressed as a percentage of maximum fusion.
Physiologically-modeled small unilamellar vesicles consisting of 16:0-18:1 phosphatidylcholine (27%), ethanolamine glycerophospholipid (27%), 16:0-18:1 phosphatidylserine (6%) and cholesterol (40%) were prepared (final lipid concentration of 200 μM) and placed in one chamber of a stopped-flow apparatus. Aliquots of the HiLoad SP Sepharose column eluent (protein concentration=0.002 mg/ml) were placed in the other chamber, samples were rapidly mixed in a stopped flow apparatus and membrane fusion was quantified. Ethanolamine glycerophospholipids included 100% plasmenyl ethanolamine (A) 75% plasmenyl ethanolamine and 25% PE (B); 50% plasmenyl ethanolamine and 50% PE (C); and 25% plasmenyl ethanolamine and 75% PE (D;
Vesicles were composed of 16:0-18:1 PC/18:0-20:4 plasmenyl ethanolamine/cholesterol (27/27/40 mole percent) and varying mole percentages of phosphatidylserine (6% phosphatidylserine (A), 12% phosphatidylserine (B), 3% phosphatidylserine (C) or 0% phosphatidylserine (D)).
Physiologically-modeled SUVs containing phosphatidylcholine/18:0-20:4 plasmenylethanolamine/phosphatidylserine (45/45/10 mole ratio) and selected mole percentages of cholesterol (i.e., 40% cholesterol (A), 20% cholesterol (B), or 0% cholesterol (C)) were placed in one chamber of a stopped-flow apparatus. The other chamber contained aliquots of the active fraction from GTP-agarose chromatography (i.e., 20 mM tripolyphosphate/10 mM NAD^+ (Pi3 /NAD^+)), at a protein concentration of 0.004 mg/ml. Samples were rapidly mixed and membrane fusion was quantified. Results represent the average of six recordings from two independent preparations expressed as a percentage of maximal fusion.
The isolation of a GAPDH isoform that has been discovered to catalyze vesicle fusion, in accordance with the invention, is described in Example 5. Briefly, a […] homogenate was centrifuged at high speed to produce a cytosol. Dialyzed cytosol was fractionated on a DE-52 column, and the fractions were assayed in a vesicle fusion assay. The lipid vesicles that were used in the assay were composed of 27 mole percent of […], 6 mole percent PS, 40 mole percent cholesterol, and 27 mole percent […]. These vesicles show little measurable self-fusion activity, as evidenced by change in fluorescence in an R18 assay (half of the vesicles labeled with R18). […] The reasons underlying the cryptic nature of this activity in crude cytosol have been elaborated, showing that the cytosol contains a potent endogenous protein inhibitor of fusion activity. […]

Another series deals with T2, GAPDH (Oryctolagus cuniculus, UniProt P46406).
T2 construct: Column eluents were assayed for GAPDH activity and membrane fusion activity; from tissue; host or cells: rabbit brain (column eluents of the purification)
T2 sequence (P46406 2-333 limits assumed): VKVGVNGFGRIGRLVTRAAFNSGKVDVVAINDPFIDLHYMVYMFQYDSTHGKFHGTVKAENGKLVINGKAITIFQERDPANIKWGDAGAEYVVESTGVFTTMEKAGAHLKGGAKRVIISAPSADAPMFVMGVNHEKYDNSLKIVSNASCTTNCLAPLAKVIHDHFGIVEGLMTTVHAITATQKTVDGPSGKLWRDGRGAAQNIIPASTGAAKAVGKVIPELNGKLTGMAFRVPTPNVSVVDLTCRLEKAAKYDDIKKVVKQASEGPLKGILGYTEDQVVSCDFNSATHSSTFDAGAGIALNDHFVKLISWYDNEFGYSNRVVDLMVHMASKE
Briefly: Glyceraldehyde 3-phosphate dehydrogenase activity (spectrophotometric, NADH). Type of series: biochemical, rabbit. The protocol:
The activity of GAPDH was measured spectrophotometrically utilizing modifications of the methods of Cori, .backslash.at al. (1948) and Steck, et al. (1973). Briefly, sample was added to a 1 cm path-length semi-micro cuvette containing 50 mM triethanolamine (pH 7-6), sodium arsenate (50 mM) (pH 8.8), 2.4 mM glutathione (reduced), 0.5 mM NAD, and water in a final volume of 990 .backslash.pl. After establishing a baseline (1 min), the reaction was initiated with 10 μl of 10 mM D-glyceraldehyde 3-phosphate (prepared according to Sigma product bulletin G-8007) and absorbance at 340 nm was measured for 5 minutes. Units of GAPDH activity represent the mass (μmol) of D-glyceraldehyde 3-phosphate converted per minute. The mass of NADH generated was calculated utilizing ε=[…].

T1 sequence (P46406 2-333 limits assumed): as above

As to `CCCCCCCC/C=C\CCCCCCCC(=O)O[C@H](CO/C=C\CCCCCCCCCCCCCC)COP(=O)(O)OCCN` [16:0-18:1 plasmenyl ethanolamine], in series [1] (45% PC/45% PE/10% PS vesicles), the “initial rate of membrane fusion relative to vesicles with 16:0-18:1 phosphatidylethanolamine” value is listed as “significantly greater”. Further, the “fusogenicity relative to vesicles containing 16:0-18:1 phosphatidylethanolamine” value in series [1] (POPS/POPC/ethanolamine glycerophospholipid (1:1:1) SUVs) is “six times more fusogenic”. In addition, in series [2], the “rate of fusion to PS SUVs relative to PC/16:0-18:1 phosphatidylethanolamine vesicles” value is “three times more rapidly”. Further, in series [3], the “breakdown of lipid during the fusion procedures” value was “No significant generation of radiolabeled fatty acid or lysophospholipid”. Consider `O=C[C@H](O)COP(=O)(O)O` [D-glyceraldehyde 3-phosphate], for which, in series [4], the “inhibition of membrane fusion activity” value is given as “inhibited”. In the case of `O=C(O)c1cc(SSc2ccc([N+](=O)[O-])c(C(=O)O)c2)ccc1[N+](=O)[O-]` [DTNB], the “inactivation of membrane fusion-catalyzing activity” value in series [4] (1 mM for 30 minutes at 37° C., void volume activity) is “inactivated”. On to `CC(C)[C@H]1CC[C@@]2(CO2)[C@H]2C(=O)OCC(C(=O)O)=C[C@H]12` [Koningic acid], for which, in series [4], the “inhibition of membrane fusion activity” value is reported as “failed to inhibit”. For the same compound, the “inhibition of GAPDH enzyme activity” value at GAPDH was “maximally inhibited”. Take `CCN1C(=O)C=CC1=O` [N-ethylmaleimide]: in series [4] (1 mM for 60 minutes at 37° C., void volume activity), the “inhibition of membrane fusion-catalyzing activity” value was “not inhibited”.

On to “GAPDH isoform: 38 kDa isoform of glyceraldehyde-3-phosphate dehydrogenase purified from rabbit brain cytosol that catalyzes vesicle fusion”, for which, in series [4] (calculated, protein 4 μg/ml, assumes ≈1000 lipid molecules per vesicle and tetramer), the “time for catalyzed fusion of one pair of vesicles (on average)” value was 1 ms. Also, in series [4] (each stage of the purification procedure), the “selectivity of membrane fusion activity for vesicles containing plasmenylethanolamine compared with phosphatidylethanolamine” value was “highly selective”.
